Tested on: MCF10A cells
Experiment: Transwell migration assay
Assay type: cell-based, human
Conditions: TGFβ 20 ng/mL
Description: Transwell migration assays were performed according to Irie et al., 2005 J. Cell Biol. 171: 1023. MCF10A cells were transfected with a negative control siRNA designed to have no sequence similarity to a human transcript sequence (#AM4611) or siRNAs for Akt1 (#S660) or Akt2 (#S1216), or siRNAs for both Akt 1 and Akt2 (50 nM). Twenty four hours after transfection, cells were cultured overnight in assay medium (MCF10A growth medium containing 2% serum±TGFβ (20 ng/mL)). Sixteen hours later, cells were trypsinized and 10^5 cells were added to the top chambers of
24-well transwell plates (8 μm pore size; BD Bioscience, Bedford, Mass.). The bottom chambers were filled with assay medium. […] The significance of variability between a given group and its corresponding control was determined with the unpaired t test.
The mRNAs encoding Akt1 and Akt2, which are present in similar abundance in untransfected MCF10A cells (FIG. 10), were respectively knocked down by transfection with small interfering RNA (siRNA) directed against Akt1 or Akt2. […] After transfection with these siRNAs, the cells were analyzed for the abundance of Zeb1, Zeb2, and E-cadherin before and 24 hours after treatment with TGFβ. […] Parallel cultures of similarly treated cells were therefore used to measured cell migration by means of a Transwell cell migration assay.

TGFβ was tested, and the “enhancement of cell migration” value (Akt1 siRNA-transfected MCF10A cells) was 22 times and the “enhancement of cell migration” value (untransfected MCF10A cells) was 7.7 times.

— patent US8617818B2, “Compositions and methods for diagnosis and prognosis of cancer and progression, and for screening anti-cancer agents” (Tufts Medical Center, priority 2009, dated 2013)
